According to patent publication US20170190726A9, “PRODRUG FOR RELEASE OF CISPLATIN AND CYCLOOXYGENASE INHIBITOR” (priority 2013, published 2017):

Tests used:
TNF-α = experiment: ELISA of TNF-α in LPS-stimulated RAW 264.7 macrophages; format: cell-based, mouse; settings: for LPS-induced TNF-α production: preventive: pretreatment 10 μM 6 h, then LPS 12 h
Protocol: (§2) RAW 264.7 cells were plated at a concentration of 10,000 cells/mL in 96 plates and allowed to grow overnight. For preventative anti-inflammatory treatment, Platin-A (10 μM), aspirin (10 μM), cisplatin (10 μM) and an equimolar ratio of cisplatin and aspirin (10 μM each) was incubated with the RAW cells for 6 h. Lipopolysaccharide (LPS) (100 ng/mL) was added and the cells were further incubated for 12 h. For therapeutic anti-inflammatory treatment, LPS (100 ng/mL) was added to the RAW cells and incubated for 6 h. Platin-A (10 μM), aspirin (10 μM), cisplatin (10 μM) and an equimolar ratio of cisplatin and aspirin (10 μM each) was then added to the cells and incubated for 12 h. ELISA was performed on the supernatants against the cytokines interleukin (IL)-6, IL-10, and TNF-α. Briefly, antibody coated plates were blocked with 10% FBS in PBS for 1 h at room temperature followed by 3 washes. RAW cell supernatants were incubated on the plates for 2 h at room temperature. This was immediately followed by washings and sequential incubations with the cytokine-biotin conjugate and streptavidin working solution. Finally, the substrate reagent containing 3,3′,5,5′-tetramethylbenzidine (100 μL) was added to each well, incubated for 15 min, the reaction was stopped by adding 50 μL H2SO4 (0.1 M). The absorbance was recorded at 450 nm using a BioTek Synergy HT well plate reader.

IL-6 = experiment: ELISA of IL-6 in LPS-stimulated RAW 264.7 macrophages; format: cell-based, mouse; settings: for LPS-induced IL-6 production: preventive: pretreatment 10 μM 6 h, then LPS 12 h
Protocol: as §2

PC3 cells [1] = experiment: Apoptosis detection by annexin V/PI assay; format: cell-based, Human; settings: 25 μM, 6 h
Source text: High expression of COX-2 is found in various cancers, however, for PCa cell lines as well as tissue, contradictory results exist. We therefore tested anti-proliferative properties of Platin-A on androgen-responsive LNCaP and androgenunresponsive PC3 and DU145 PCa cells that differ in their malignant potentials. […] However, in LNCaP cells, Platin-A activity was better than an equimolar mixture of cisplatin and aspirin. In general, Pt(IV) compounds are less cytotoxic compared to their active Pt(II) form. […] To evaluate whether Platin-A-dependent inhibition of cancer cell proliferation is associated with apoptosis, Alexa Fluor® 488 annexin V/propidium iodide (PI) staining assay was carried out in PC3 cells and the data were analyzed by fluorescence assisted cell sorting. […]
PC3 cells were seeded at a density of 1×10^6 cells/mL on each well of a six well plate and allowed to grow overnight. […] Cell density was determined and cells were resuspended in 1× annexinVbinding buffer to 1×10^6 cells/mL preparing a sufficient volume to have 100 μL per assay. […] After the incubation period, 400 μL of 1× annexin-binding buffer was added to each sample, samples were gently mixed keeping the samples on ice, and the samples were analyzed on the flow cytometer immediately.

PC3 cells [2] = experiment: MTT cytotoxicity assay in PC3 cells; format: cell-based, Human; settings: 72 h
Protocol: (§1) Human prostate cancer cell lines LNCaP, PC3, and DU145 and RAW 264.7 macrophages were procured from the American type culture collection (ATCC). DU145 cells were grown at 37° C. in 5% CO2 in Eagle's minimum essential medium (EMEM) supplemented with 10% fetal bovine serum (FBS) and 1% penicillin/streptomycin. […] Cells were passed every 3 to 4 days and restarted from frozen stocks upon reaching pass number 20. The cytotoxic behaviors of cisplatin, aspirin, cisplatin+aspirin, and Platin-A were evaluated using the MTT assay against PC3, DU145, LNCaP, and RAW 264.7 cells. […] The cells were treated with different constructs at varying concentrations and incubated for 72 h at 37° C. except for RAW 264.7 macrophages. […] The cells were then treated with 20 μL of MTT (5 mg/mL in PBS) for 5 h. […] Each well was performed in triplicate. […] The IC50 values were reported at +95% confidence intervals.

LNCaP cells = experiment: MTT cytotoxicity assay in LNCaP cells; format: cell-based, Human; settings: 72 h
Protocol: as §1

DU145 cells = experiment: MTT cytotoxicity assay in DU145 cells; format: cell-based, Human; settings: 72 h
Protocol: as §1

[3] = therapeutic: LPS activated macrophages then 10 μM for 12 h

| SMILES | LPS-induced TNF-α production (TNF-α) | LPS-induced IL-6 production (IL-6) | apoptosis induction (annexin V/PI) (PC3 cells [1]) | IC50 (PC3 cells [2]) [µM] | levels of TNF-α (TNF-α; [3]) | IC50 (LNCaP cells) [µM] | levels of IL-6 (IL-6; [3]) | IC50 (DU145 cells) [µM] |
| --- | --- | --- | --- | --- | --- | --- | --- | --- |
| CC(=O)Oc1ccccc1C(=O)O [Aspirin, Acetylsalicylic acid] | did not show any preventive action | did not show any preventive action | did not show any changes in healthy PC3 populations | – | – | – | – | – |
| N.N.[Cl][Pt][Cl] [Cisplatin, Cis-diamminedichloroplatinum(II)] | did not show any preventive action | did not show any preventive action | – | 14 ± 4 | did not show any effect | 15 ± 1 | did not show any effect | 5 ± 2 |
